Laboratory results published in patent US9994566B2, “Compound of 5-hydroxyl-1,7-naphthyridine substituted by aryl or heteroaryl, preparation method thereof and pharmaceutical use thereof” (SHENYANG SUNSHINE PHARMACEUTICAL CO. LTD., priority 2015, dated 2018).
“And” between values parts separate entries of the source, which are not always exact repeats. Equal values may be shown once.

Assays:
hepatoma cells Hep3B = assay: Promotion of erythropoietin (EPO) expression in hepatoma cells Hep3B in vitro (ELISA); format: cell-based, Human; settings: Hep3B supernatant, 24 hours, test doses 100 μmol/L and 10 μmol/L (dose of the tabulated value not given)
Text: Biological Example 1: Development and Screening of In Vitro Detection Methods: Promotion of Erythropoietin Expression in Hepatoma Cells Hep3B In Vitro by HIF-PHD2 Inhibitor Compounds
The complete medium for culture of Experimental hepatoma cells Hep3B (China Center for Type Culture Collection, CCTCC) was MEM (Cat# GNM 41500, GIBCO, provided by Hangzhou Genom Biopharmaceutical Technology Co., Ltd) supplemented with 10% serum FBS (Cat#10099-141, GIBCO) and 1% P/S (Cat#GNM15140, provided by Hangzhou Genom Biopharmaceutical Technology Co., Ltd). Cells were cultured in a 37° C., 5% CO2 incubator. Experimental reagents included dimethyl sulfoxide (for molecular biology, >=99.9%, Catalog # D8418) purchased from Sigma. The ELISA kit was purchased from Quantikine IVD ELISA, Human Erythropoietin (R&D, DEP00). The test control AKB-6548 was prepared by the inventors or obtained by commercial purchase. The test substance was stored at −20° C. in the dark.
The test substance and the positive control substance were fully dissolved in sterile water or dimethylsulfoxide under dark conditions and prepared into a stock solution at a concentration of 10^−1 mol/L or 10^−2 mol/L. Each of the stock solutions was stored at −20° C. MEM medium containing 0.5% FBS was used as a diluent to dilute the stock solution of the test substance, to prepare a diluted test substance at a concentration of 100 μmol/L and 10 μmol/L. To a 96-well culture plate was added 200 μl/well (1.5 or 2.0×10^4 cells/well) of hepatoma cells Hep3B complete medium suspension and incubated overnight at 37° C. in a 5% CO2 incubator. The solution in the 96-well culture plate was removed and the cells were washed once with the MEM medium containing 0.5% FBS. 200 μl/well of the test substance was added in the dark, at a dose of 100 μmol/L and 10 μmol/L, and each dose set 2 wells, a test well and a spare well. A cell control well was prepared by replacing the test solution with the diluent (without test substance and solvent). A solvent control well was prepared by replacing the test solution with the diluent containing the corresponding concentration of solvent (dimethylsulfoxide) (without test substance). They were cultured in a 5% CO2 incubator at 37° C. for 24 hours. The supernatant was absorbed as a sample and cryopreserved at −20° C. for use. 100 μl/well of stop solution was added. OD value was detected by microplate reader A450 nm-A600 nm. The expression level of EPO (mIU/mL) promoted by the test substance was obtained according to the standard curve.

male Balb/c mice = assay: Effect on increasing erythrocyte of normal mice: reticulocyte (RETIC) count; format: in vivo; settings: four hours after the last administration; for RETIC, individual mice (Mice No. 1-8): one value per mouse; for RETIC, Average: orbital blood
Procedure: Biological Example 3: Effect of the Compounds of the Present Invention on Increasing Erythrocyte of Normal Mice
80 male Balb/c mice were divided into 11 groups, with 8 animals for each drug group, 10 animals for blank control group. Drug group: AKB-6548, 100 mg/kg, oral administration, once a day×3; FG-4592, 25 mg/kg, oral administration, once a day×3; EPO, 100 IU/kg, Day 1 and Day 3, subcutaneous injection, as positive control groups. Each of the compounds of the present invention was orally administrated at 25 mg/kg, once a day×3. Four hours after the last administration, orbital blood of all animals were collected and treated with EDTA-K2 anticoagulant, and reticulocytes (RETIC) were counted with a blood cell automated analyzer.

[1] = target: HIF Prolyl hydroxylases 2 (PHD2) (Homo sapiens, UniProt Q9GZT9); assay: PHD2 inhibition, fluorescence polarization (FP) detection of HIF-1α / VBC complex interaction; format: biochemical; settings: PHD2 0.5 μg/μl, FAM-HIF (556-575) 1 μM, 30 minutes room temperature
Procedure: The interaction between hypoxia-inducible factor HIF-1α and VBC complex (von Hippel-Lindau protein-Elongin B-Elongin C, VBC) was detected by Fluorescence polarization (FP) method, to measure the enzyme inhibitory activity of the HIF Prolyl hydroxylases 2 (PHD2) inhibitor compounds.
Subsequently, the desired concentration of the test compound or the positive compound was added (the compound was replaced by the buffer in the negative control and the positive control). Finally, PHD2 was added at a final concentration of 0.5 μg/μl (PHD2 was replaced by the buffer in the negative control). They were mixed well and allowed to stand at room temperature for 30 minutes in the dark followed by 95° C. water bath for 1 minute, and then the reaction was terminated. After the temperature drops to room temperature, the sample was prepared well for use. EBC buffer (50 mM Tris.HCl, 120 mM NaCl, 0.5% NP-40) was added to the corresponding wells of a black 96-well test plate. A GST-VBC complex was added to the corresponding test wells at a final concentration of 300 nM (using the wells containing only EBC buffer as blank wells). Subsequently, the corresponding PHD2 prolyl hydroxylation reaction sample was added in the dark as a substrate with a final concentration of 100 nM. After mixing well, the lateral and longitudinal fluorescence intensity values were measured using a full-wavelength multifunctional microplate reader (TECAN infinite M1000) at an excitation wavelength of […] and an emission wavelength of 518 nm.
The fluorescence polarization (mP) was calculated: mP=1000×(lateral value−G factor×longitudinal value)/(lateral value+G factor×longitudinal value) wherein, lateral value=lateral fluorescence intensity value of test well−lateral fluorescence intensity value of blank well, longitudinal value=longitudinal fluorescence intensity value of test well−longitudinal fluorescence intensity value of blank well, […]
The IC50 was calculated using the non-linear regression data analysis method of Graphpad Prism 4.0 software ([…]).

[2] = 100 IU/kg, subcutaneous injection, Day 1 and Day 3

Sequence of HIF Prolyl hydroxylases 2 (PHD2) (Q9GZT9 whole entry, species assumed): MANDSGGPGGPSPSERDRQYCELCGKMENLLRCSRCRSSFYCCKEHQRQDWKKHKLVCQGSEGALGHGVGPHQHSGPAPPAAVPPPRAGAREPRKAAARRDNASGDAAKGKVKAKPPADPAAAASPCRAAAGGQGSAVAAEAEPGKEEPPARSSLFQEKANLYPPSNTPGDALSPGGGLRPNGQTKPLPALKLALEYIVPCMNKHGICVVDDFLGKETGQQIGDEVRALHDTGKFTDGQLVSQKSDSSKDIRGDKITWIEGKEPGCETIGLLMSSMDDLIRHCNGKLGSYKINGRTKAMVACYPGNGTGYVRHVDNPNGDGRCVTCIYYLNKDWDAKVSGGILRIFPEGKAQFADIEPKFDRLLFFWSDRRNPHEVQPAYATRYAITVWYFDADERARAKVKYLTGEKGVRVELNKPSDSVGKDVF

Molecule | EPO level of the test substance (hepatoma cells Hep3B) [mIU/mL] | IC50 [1] [µM] | other results
N#Cc1ccc(-c2cnc(C(=O)NCC(=O)O)c(O)c2)cc1 [AKB-6548, reference compound] | 0.13 |  | RETIC, individual mice (Mice No. 1-8) (male Balb/c mice; 100 mg/kg, oral, once a day × 3, listed as AKB-6548-A): 5.3 (2×) and 6.1 and 4 (2×) and 4.2 (2×) and 4.9; RETIC, Average (male Balb/c mice; 100 mg/kg, oral, once a day × 3): 4.75
Cc1nc(C(=O)NCC(=O)O)c(O)c2ccc(Oc3ccccc3)cc12 [FG-4592, reference compound] | 0.378 |  | RETIC, individual mice (Mice No. 1-8) (male Balb/c mice; 25 mg/kg, oral, once a day × 3, listed as FG-4592-A): 3.6 and 3.8 (2×) and 4 (2×) and 3.5 and 4.4 and 3.4; RETIC, Average (male Balb/c mice; 25 mg/kg, oral, once a day × 3): 3.73
O=C(O)CNC(=O)c1ncc2nc(-c3ccc4ccccc4c3)ccc2c1O [Compound 19, [(5-hydroxy-2-(naphthalen-2-yl)-[1,7]naphthyridine-6-carbonyl)-amino]-acetic acid] | 9.786 | 7.5 | 
Cc1nc(C(=O)NCC(=O)O)c(O)c2ccc(-c3ccc(C#N)cc3)nc12 [Compound 22, 2-{5-hydroxy-[2-(4-cyano)-phenyl]-8-methyl-[1,7]-naphthyridine-6-formamido} acetic acid] | 0.53 | 9.3 | 
Cc1nc(C(=O)NCC(=O)O)c(O)c2ccc(-c3cccc(Br)c3)nc12 [Compound 12, 2-{5-hydroxy-[2-(3-bromo)-phenyl]-8-methyl-[1,7]-naphthyridine-6-formamido} acetic acid] | 4.536 | 4.1 | 
Cc1nc(C(=O)NCC(=O)O)c(O)c2ccc(-c3cccnc3)nc12 [Compound 5, 2-{5-hydroxy-8-methyl-[2-(3-pyridyl)]-[1,7]-naphthyridine-6-formamido} acetic acid] | 1.89 | 1.7 | 
COc1ccc(-c2ccc3c(O)c(C(=O)NCC(=O)O)nc(C)c3n2)cc1 [Compound 10, 2-{5-hydroxy-8-methyl-[2-(4-methoxy)-phenyl]-[1,7]-naphthyridine-6-formamido} acetic acid] | 0.64 | 63 | 
Cc1nc(C(=O)NCC(=O)O)c(O)c2ccc(-c3ccc(C(C)(C)C)cc3)nc12 [Compound 11, 2-{5-hydroxy-8-methyl-[2-(4-tert-butyl)-phenyl]-[1,7]-naphthyridine-6-formamido} acetic acid] | 4.158 | 39 | 
Cc1nc(C(=O)NCC(=O)O)c(O)c2ccc(-c3ccc(Cl)cc3)nc12 [Compound 3, 2-{5-hydroxy-[2-(4-chloro)-phenyl]-8-methyl-[1,7]-naphthyridine-6-formamido} acetic acid] | 0.52 | 85 | 
O=C(O)CNC(=O)c1ncc2nc(-c3ccc(Br)cc3)ccc2c1O [Compound 17, 2-{5-hydroxy-[2-(4-bromo)-phenyl)-[1,7]-naphthyridine-6-formamido} acetic acid] | 7.757 | 20 | 
O=C(O)CNC(=O)c1ncc2nc(-c3cccc(F)c3)ccc2c1O [Compound 20, 2-{5-hydroxy-[2-(3-fluoro)-phenyl]-[1,7]-naphthyridine-6-formamido} acetic acid] | 10.685 | 0.82 | 
COc1ccc(-c2ccc3c(O)c(C(=O)NCC(=O)O)ncc3n2)cc1 [Compound 2, 2-{5-hydroxy-[2-(4-methoxy)-phenyl]-[1,7]-naphthyridine-6-formamido} acetic acid] | 0.64 | 11 | 
O=C(O)CNC(=O)c1ncc2nc(-c3cccc(Br)c3)ccc2c1O [Compound 13, 2-{5-hydroxy-2-(3-bromophenyl)-[1,7]-naphthyridine-6-formamido} acetic acid] | 0.832 | 0.41 | 
CC(C)(C)c1ccc(-c2ccc3c(O)c(C(=O)NCC(=O)O)ncc3n2)cc1 [Compound 16] | 7.046 | 48 | 
O=C(O)CNC(=O)c1ncc2nc(-c3ccc(C(F)(F)F)cc3)ccc2c1O [Compound 23, 2-{5-hydroxy-[2-(4-trifluoromethyl)-phenyl]-[1,7]-napthyridine-6-formamido} acetic acid] | 0.72 | 5.2 | RETIC, individual mice (Mice No. 1-8) (male Balb/c mice; 25 mg/kg, oral, once a day × 3): 2.9 and 3.2 (3×) and 3 and 5.1 and 9.1; RETIC, Average (male Balb/c mice; 25 mg/kg, oral, once a day × 3): 4.24
COc1cccc(-c2ccc3c(O)c(C(=O)NCC(=O)O)ncc3n2)c1 [Compound 15] | 6.316 | 7.7 | RETIC, individual mice (Mice No. 1-8) (male Balb/c mice; 25 mg/kg, oral, once a day × 3): 4.9 (3×) and 4.6 and 4.1 and 3.7 and 3.8 and 3.1; RETIC, Average (male Balb/c mice; 25 mg/kg, oral, once a day × 3): 4.25
EPO: erythropoietin, glycoprotein hormone; positive control given by subcutaneous injection |  |  | RETIC, individual mice (Mice No. 1-8) (male Balb/c mice; [2]): 5 and 5.9 and 2.5 and 2.2 (2×) and 2.6 and 4.3 and 5.1; RETIC, Average (male Balb/c mice; [2]): 3.73
COc1cccc(-c2ccc3c(O)c(C(=O)NCC(=O)O)nc(C)c3n2)c1 [Compound 4, 2-{5-hydroxy-[2-(3-methoxy)-phenyl]-8-methyl-[1,7]-napthyridine-6-formamido} acetic acid] | 1.512 | 6.9 | 
O=C(O)CNC(=O)c1ncc2nc(-c3ccccc3)ccc2c1O [Compound 1] | 0.71 | 18 | 
O=C(O)CNC(=O)c1ncc2nc(-c3cccs3)ccc2c1O [Compound 18] | 8.888 | 5.7 | 
Cc1nc(C(=O)NCC(=O)O)c(O)c2ccc(-c3cccc([N+](=O)[O-])c3)nc12 [Compound 21, 2-{5-hydroxy-[2-(3-nitro)-phenyl]-8-methyl-[1,7]-naphthyridine-6-formamido} acetic acid] | 0.325 | 14 | 
O=C(O)CNC(=O)c1ncc2nc(-c3ccc(Cl)cc3)ccc2c1O [Compound 8] | 0.68 | 43 | 
